Laboratory results published in ChEMBL document CHEMBL5346903, “Discovery of novel and bioavailable histone deacetylases and cyclin-dependent kinases dual inhibitor to impair the stemness of leukemia cells” (Eur J Med Chem, 2023).

Assays:
[1] = target: CDK3/Cyclin E (Homo sapiens) (UniProt P24864+Q00526); assay: Inhibition of CDK3/cyclinE1 (unknown origin) at 100 nM preincubated for 20 mins followed by [gamma-33P]ATP addition measured after 120 mins in presence of ATP by Hot-SpotSM kinase assay relative to control; type: protein-complex assay; conditions: time 140.0 min
Sequence of CDK3/Cyclin E (Homo sapiens) (P24864 whole entry, looked up): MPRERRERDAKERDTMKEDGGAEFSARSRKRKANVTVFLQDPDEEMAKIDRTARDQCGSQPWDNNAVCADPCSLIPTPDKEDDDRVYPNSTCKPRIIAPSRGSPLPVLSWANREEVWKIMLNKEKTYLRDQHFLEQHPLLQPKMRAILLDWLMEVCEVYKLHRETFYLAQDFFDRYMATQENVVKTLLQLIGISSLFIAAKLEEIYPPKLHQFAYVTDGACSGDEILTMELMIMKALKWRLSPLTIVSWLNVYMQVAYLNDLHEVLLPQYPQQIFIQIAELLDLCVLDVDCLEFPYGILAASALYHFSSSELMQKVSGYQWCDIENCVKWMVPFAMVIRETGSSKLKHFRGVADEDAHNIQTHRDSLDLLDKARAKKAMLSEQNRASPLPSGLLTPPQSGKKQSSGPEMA
Sequence of CDK3/Cyclin E (Homo sapiens) (Q00526 whole entry, looked up): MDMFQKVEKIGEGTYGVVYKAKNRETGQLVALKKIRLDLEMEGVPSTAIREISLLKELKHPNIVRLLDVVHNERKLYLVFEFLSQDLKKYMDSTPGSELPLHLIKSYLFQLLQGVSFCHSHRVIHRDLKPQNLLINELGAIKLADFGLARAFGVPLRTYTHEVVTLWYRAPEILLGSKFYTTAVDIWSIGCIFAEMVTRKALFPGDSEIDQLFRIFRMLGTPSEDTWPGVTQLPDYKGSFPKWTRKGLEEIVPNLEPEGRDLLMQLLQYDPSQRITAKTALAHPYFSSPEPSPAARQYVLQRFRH

[2] = tested on: U-937; assay: Induction of apoptosis in human U-937 cells assessed as necrotic cells at 0.2 uM incubated for 48 hrs by annexin V-FITC/PI satining based flow cytometry (reference value: 1.96 %); type: functional
[3] = target: CDK6/cyclin D3 (Homo sapiens) (UniProt P30281+Q00534); assay: Inhibition of CDK6/cyclinD3 (unknown origin) at 100 nM preincubated for 20 mins followed by [gamma-33P]ATP addition measured after 120 mins in presence of ATP by Hot-SpotSM kinase assay relative to control; type: protein-complex assay; conditions: time 140.0 min
[4] = target: Cyclin-dependent kinase 5/CDK5 activator 1 (Homo sapiens) (UniProt Q00535+Q15078); assay: Inhibition of CDK5/p25NCK (unknown origin) at 100 nM preincubated for 20 mins followed by [gamma-33P]ATP addition measured after 120 mins in presence of ATP by Hot-SpotSM kinase assay relative to control; type: protein-complex assay; conditions: time 140.0 min
Sequence of Cyclin-dependent kinase 5/CDK5 activator 1 (Homo sapiens) (Q00535 whole entry): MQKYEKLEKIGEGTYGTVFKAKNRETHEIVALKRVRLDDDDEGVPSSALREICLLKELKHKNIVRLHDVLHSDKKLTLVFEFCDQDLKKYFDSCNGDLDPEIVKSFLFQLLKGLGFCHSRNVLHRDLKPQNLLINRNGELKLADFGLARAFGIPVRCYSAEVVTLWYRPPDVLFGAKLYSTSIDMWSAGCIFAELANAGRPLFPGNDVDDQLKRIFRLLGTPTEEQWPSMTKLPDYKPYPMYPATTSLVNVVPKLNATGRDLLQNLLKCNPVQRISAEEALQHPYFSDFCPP
Sequence of Cyclin-dependent kinase 5/CDK5 activator 1 (Homo sapiens) (Q15078 99-307 partner limits assumed): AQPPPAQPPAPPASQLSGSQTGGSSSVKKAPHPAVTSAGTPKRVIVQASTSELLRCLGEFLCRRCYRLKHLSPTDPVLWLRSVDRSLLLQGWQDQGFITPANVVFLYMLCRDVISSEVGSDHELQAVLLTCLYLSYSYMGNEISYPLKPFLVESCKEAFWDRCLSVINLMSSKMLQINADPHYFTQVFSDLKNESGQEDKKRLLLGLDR

[5] = Bioavailability in Sprague-Dawley rat at 25 mg/kg, po measured upto 8 hrs by LC/MS-MS analysis; type: ADME, organism-based; conditions: in vivo
[6] = tested on: U-937; assay: Induction of apoptosis in human U-937 cells assessed as viable cells at 2 uM incubated for 48 hrs by annexin V-FITC/PI satining based flow cytometry (reference value: 90.0 %); type: functional; conditions: read-out: Activity
[7] = target: CDK1/Cyclin E (Homo sapiens) (UniProt P06493+P24864); assay: Inhibition of CDK1/cyclinE1 (unknown origin) at 100 nM preincubated for 20 mins followed by [gamma-33P]ATP addition measured after 120 mins in presence of ATP by Hot-SpotSM kinase assay relative to control; type: protein-complex assay; conditions: time 140.0 min
Sequence of CDK1/Cyclin E (Homo sapiens) (P06493 whole entry, looked up): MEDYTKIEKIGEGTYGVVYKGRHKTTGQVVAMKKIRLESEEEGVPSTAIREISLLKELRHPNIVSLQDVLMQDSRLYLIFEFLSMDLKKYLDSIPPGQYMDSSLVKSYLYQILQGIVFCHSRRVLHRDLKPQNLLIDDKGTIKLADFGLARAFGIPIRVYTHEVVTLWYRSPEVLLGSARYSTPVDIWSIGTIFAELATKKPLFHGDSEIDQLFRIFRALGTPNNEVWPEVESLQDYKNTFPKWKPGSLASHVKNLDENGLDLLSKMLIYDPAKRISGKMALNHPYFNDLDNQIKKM
Sequence of CDK1/Cyclin E (Homo sapiens) (P24864 whole entry, looked up): as the sequence (P24864 whole entry, looked up) above

[8] = target: Cyclin-dependent kinase 13/Cyclin-K (Homo sapiens) (UniProt Q14004+O75909); assay: Inhibition of CDK13/cyclinK (unknown origin) at 100 nM preincubated for 20 mins followed by [gamma-33P]ATP addition measured after 120 mins in presence of ATP by Hot-SpotSM kinase assay relative to control; type: protein-complex assay; conditions: time 140.0 min
[9] = Cytotoxicity against human Kasumi 1 cells assessed as CD34positive CD38negative leukemic stem cell-like cells sub-population at 2 uM incubated for 24 hrs by APC/FITC satining based flow cytometry (reference value: 96.8 %); type: functional
[10] = target: CDK1/Cyclin A (Homo sapiens) (UniProt P06493+P20248); assay: Inhibition of CDK1/cyclinA2 (unknown origin) at 100 nM preincubated for 20 mins followed by [gamma-33P]ATP addition measured after 120 mins in presence of ATP by Hot-SpotSM kinase assay relative to control; type: protein-complex assay; conditions: time 140.0 min
Sequence of CDK1/Cyclin A (Homo sapiens) (P06493 whole entry, looked up): as the sequence (P06493 whole entry, looked up) above
Sequence of CDK1/Cyclin A (Homo sapiens) (P20248 whole entry, looked up): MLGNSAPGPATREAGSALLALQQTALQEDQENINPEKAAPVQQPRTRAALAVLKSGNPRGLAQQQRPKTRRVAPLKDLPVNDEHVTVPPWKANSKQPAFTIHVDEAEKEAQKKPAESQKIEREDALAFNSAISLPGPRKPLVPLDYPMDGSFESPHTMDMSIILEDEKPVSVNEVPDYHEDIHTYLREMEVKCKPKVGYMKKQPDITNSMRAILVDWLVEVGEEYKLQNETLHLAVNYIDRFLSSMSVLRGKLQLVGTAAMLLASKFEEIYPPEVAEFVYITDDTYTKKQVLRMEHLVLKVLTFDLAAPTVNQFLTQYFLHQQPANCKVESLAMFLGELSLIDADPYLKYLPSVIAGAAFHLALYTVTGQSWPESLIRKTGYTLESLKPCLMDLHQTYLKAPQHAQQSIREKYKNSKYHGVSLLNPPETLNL

[11] = target: Cyclin-dependent kinase 1/cyclin B1 (Homo sapiens) (UniProt P06493+P14635); assay: Inhibition of CDK1/cyclinB1 (unknown origin) at 100 nM preincubated for 20 mins followed by [gamma-33P]ATP addition measured after 120 mins in presence of ATP by Hot-SpotSM kinase assay relative to control; type: protein-complex assay; conditions: time 140.0 min
Sequence of Cyclin-dependent kinase 1/cyclin B1 (Homo sapiens) (P06493 whole entry, looked up): as the sequence (P06493 whole entry, looked up) above
Sequence of Cyclin-dependent kinase 1/cyclin B1 (Homo sapiens) (P14635 whole entry, looked up): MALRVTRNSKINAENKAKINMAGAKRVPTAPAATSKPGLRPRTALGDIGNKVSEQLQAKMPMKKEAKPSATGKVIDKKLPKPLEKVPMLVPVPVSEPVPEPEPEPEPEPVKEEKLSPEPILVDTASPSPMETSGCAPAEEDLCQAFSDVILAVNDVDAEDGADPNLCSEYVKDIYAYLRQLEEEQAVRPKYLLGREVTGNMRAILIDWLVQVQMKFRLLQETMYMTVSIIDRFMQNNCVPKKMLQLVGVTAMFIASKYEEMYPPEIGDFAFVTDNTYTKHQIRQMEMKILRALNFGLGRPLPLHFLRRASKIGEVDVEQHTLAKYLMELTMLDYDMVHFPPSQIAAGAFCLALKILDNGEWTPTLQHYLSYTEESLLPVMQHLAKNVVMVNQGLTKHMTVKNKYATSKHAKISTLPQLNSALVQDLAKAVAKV

[12] = tested on: U-937; assay: Induction of differentiation in human U-937 cells assessed as increase in CD11b positive cells at 1.5 uM incubated for 48 hrs by FITC staining based flow cytometry (reference value: 2.72 %); type: functional
[13] = target: Histone deacetylase 2 (Homo sapiens, UniProt Q92769); assay: Inhibition of recombinant human HDAC2 using HDAC substrate incubated for 30 mins by fluorescence based assay
Sequence of Histone deacetylase 2 (Q92769 whole entry): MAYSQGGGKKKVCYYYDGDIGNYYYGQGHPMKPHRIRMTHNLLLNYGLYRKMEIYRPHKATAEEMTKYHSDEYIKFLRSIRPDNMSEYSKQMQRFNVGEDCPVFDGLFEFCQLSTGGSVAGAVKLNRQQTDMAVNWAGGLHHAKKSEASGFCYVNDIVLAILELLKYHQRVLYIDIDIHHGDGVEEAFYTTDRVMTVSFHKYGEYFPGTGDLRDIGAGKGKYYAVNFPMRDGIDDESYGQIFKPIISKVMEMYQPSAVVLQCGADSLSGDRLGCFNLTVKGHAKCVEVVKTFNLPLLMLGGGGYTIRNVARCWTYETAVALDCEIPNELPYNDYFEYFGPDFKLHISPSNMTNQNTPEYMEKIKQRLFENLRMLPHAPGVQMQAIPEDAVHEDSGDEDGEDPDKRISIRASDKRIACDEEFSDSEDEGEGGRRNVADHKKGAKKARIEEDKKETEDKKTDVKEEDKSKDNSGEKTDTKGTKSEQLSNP

[14] = tested on: HL-60; assay: Induction of apoptosis in human HL-60 cells assessed as late apoptotic cells at 2 uM incubated for 48 hrs by annexin V-FITC/PI satining based flow cytometry (reference value: 1.33 %); type: functional
[15] = tested on: HL-60; assay: Induction of apoptosis in human HL-60 cells assessed as early apoptotic cells at 1 uM incubated for 48 hrs by annexin V-FITC/PI satining based flow cytometry (reference value: 1.24 %); type: functional
[16] = tested on: U-937; assay: Induction of differentiation in human U-937 cells assessed as increase in CD11b positive cells at 1 uM incubated for 48 hrs by FITC staining based flow cytometry (reference value: 2.72 %); type: functional
[17] = target: Histone deacetylase (Homo sapiens) (UniProt Q13547+O15379+Q9UBN7+Q92769+Q9UQL6+Q8WUI4+Q9BY41+Q96DB2+P56524+Q9UKV0+Q969S8); assay: Inhibition of HDAC in human nuclear extract using Ac-Arg-Gly-Lys(Ac)-AMC as substrate at 1 uM incubated overnight by fluorescence based assay relative to control; type: subcellular; conditions: HeLa, Nucleus
[18] = Tmax in Sprague-Dawley rat at 25 mg/kg, po measured upto 8 hrs by LC/MS-MS analysis; type: ADME, organism-based; conditions: in vivo
[19] = target: T1, Histone deacetylase 3 (Homo sapiens, UniProt O15379); assay: Inhibition of recombinant human HDAC3 using HDAC substrate incubated for 30 mins by fluorescence based assay
T1 sequence (O15379 whole entry): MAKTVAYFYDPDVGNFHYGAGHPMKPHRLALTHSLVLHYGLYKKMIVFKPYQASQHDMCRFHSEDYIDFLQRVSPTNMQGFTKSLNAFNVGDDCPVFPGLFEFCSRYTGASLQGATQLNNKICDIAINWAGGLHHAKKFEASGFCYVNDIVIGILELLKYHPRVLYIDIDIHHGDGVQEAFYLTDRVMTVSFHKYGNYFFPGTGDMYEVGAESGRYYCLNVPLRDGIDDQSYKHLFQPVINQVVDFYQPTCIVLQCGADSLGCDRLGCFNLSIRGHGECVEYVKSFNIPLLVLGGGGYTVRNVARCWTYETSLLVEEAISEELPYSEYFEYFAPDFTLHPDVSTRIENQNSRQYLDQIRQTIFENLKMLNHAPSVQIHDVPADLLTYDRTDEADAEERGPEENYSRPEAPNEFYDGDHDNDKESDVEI

[20] = target: Histone deacetylase 8 (Homo sapiens, UniProt Q9BY41); assay: Inhibition of recombinant human HDAC8 using HDAC substrate incubated for 30 mins by fluorescence based assay
Sequence of Histone deacetylase 8 (Q9BY41 whole entry): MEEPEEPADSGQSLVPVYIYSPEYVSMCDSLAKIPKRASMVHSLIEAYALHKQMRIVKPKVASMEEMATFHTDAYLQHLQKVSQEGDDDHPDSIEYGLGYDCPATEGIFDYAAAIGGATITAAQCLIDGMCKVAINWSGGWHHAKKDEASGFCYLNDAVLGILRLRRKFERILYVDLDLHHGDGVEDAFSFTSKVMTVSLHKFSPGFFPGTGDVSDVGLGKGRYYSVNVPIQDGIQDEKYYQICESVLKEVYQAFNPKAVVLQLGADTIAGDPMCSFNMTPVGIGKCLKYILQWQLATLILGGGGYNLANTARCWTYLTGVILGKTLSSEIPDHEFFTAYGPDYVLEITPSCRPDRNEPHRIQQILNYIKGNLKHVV

[21] = target: T1, Histone deacetylase 3; assay: Inhibition of HDAC3 in human nuclear extract using Ac-Arg-Gly-Lys(Ac)-AMC as substrate at 1 uM incubated overnight by fluorescence based assay relative to control; type: subcellular; conditions: HeLa, Nucleus
[22] = tested on: U-937; assay: Induction of apoptosis in human U-937 cells assessed as viable cells at 0.6 uM incubated for 48 hrs by annexin V-FITC/PI satining based flow cytometry (reference value: 93.7 %); type: functional; conditions: read-out: Activity
[23] = tested on: HL-60; assay: Induction of apoptosis in human HL-60 cells assessed as early apoptotic cells at 1.2 uM incubated for 48 hrs by annexin V-FITC/PI satining based flow cytometry (reference value: 2.4 %); type: functional
[24] = tested on: HL-60; assay: Induction of apoptosis in human HL-60 cells assessed as viable cells at 1.2 uM incubated for 48 hrs by annexin V-FITC/PI satining based flow cytometry (reference value: 94.7 %); type: functional; conditions: read-out: Activity
[25] = tested on: U-937; assay: Induction of apoptosis in human U-937 cells assessed as necrotic cells at 1.2 uM incubated for 48 hrs by annexin V-FITC/PI satining based flow cytometry (reference value: 0.102 %); type: functional
[26] = tested on: HL-60; assay: Induction of apoptosis in human HL-60 cells assessed as late apoptotic cells at 2.5 uM incubated for 48 hrs by annexin V-FITC/PI satining based flow cytometry (reference value: 2.83 %); type: functional
[27] = tested on: HL-60; assay: Induction of apoptosis in human HL-60 cells assessed as necrotic cells at 2.5 uM incubated for 48 hrs by annexin V-FITC/PI satining based flow cytometry (reference value: 0.04 %); type: functional
[28] = tested on: U-937; assay: Induction of apoptosis in human U-937 cells assessed as late apoptotic cells at 0.6 uM incubated for 48 hrs by annexin V-FITC/PI satining based flow cytometry (reference value: 4.23 %); type: functional
[29] = tested on: U-937; assay: Induction of apoptosis in human U-937 cells assessed as necrotic cells at 5 uM incubated for 48 hrs by annexin V-FITC/PI satining based flow cytometry (reference value: 0.102 %); type: functional

## Nc1ccccc1NC(=O)c1ccc(NC(=O)c2n[nH]cc2NC(=O)c2c(Cl)cccc2Cl)cc1
[1]
  inhibition: 36.3%
[2]
  Activity: 2.9%
[3]
  inhibition: 21.4%
[4]
  inhibition: 95.2%
[5]
  bioavailability: 56.7%
[6]
  viability at 2 µM: 5.82%
[7]
  inhibition: 27.6%
[8]
  inhibition: 100%
[9]
  Activity: 28.1%
[10]
  inhibition: 31%
[11]
  inhibition: 43.8%
[12]
  Activity: 16%
[13]
  IC50: 98.8 nM
[14]
  Activity: 54.5%
[15]
  Activity: 17%
[16]
  Activity: 6%
[17]
  inhibition: 100%
[18]
  Tmax: 45 min
[19]
  IC50: 40.4 nM
[20]
  IC50: 1010 nM
[21]
  inhibition: 100%

## Nc1cc(F)ccc1NC(=O)c1ccc(CNC(=O)/C=C/c2cccnc2)cc1 [TUCIDINOSTAT]
[22]
  viability at 0.6 µM: 93.5%
[23]
  Activity: 3.72%
[24]
  viability at 1.2 µM: 84.7%
[25]
  Activity: 0.142%
[26]
  Activity: 37.9%
[27]
  Activity: 0.05%
[28]
  Activity: 4.81%
[29]
  Activity: 0.117%
